Results published in patent US8952024B2, “Herbicidal pyrimidone derivatives” (E I du Pont de Nemours and Company, priority 2009, dated 2015).

Assays:
Assay in all cases: Test B pre-/postemergence plant response
Type in all cases: in vivo
soybean (Glycine max) = settings: for Plant response rating, Soybean: Postemergence
Procedure, shortened: (§1)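 Ratings reflect visual comparison with untreated controls 13 to 15 days after application, from 0 (no effect) to 100 (complete control). Application was preemergence to seeded loam/sand soil or postemergence to 1- to 4-leaf plants, with compound in a non-phytotoxic, surfactant-containing solvent.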

[1] = system: woolly cupgrass (Eriochloa villosa); settings: for Plant response rating, Cupgrass, Woolly: Postemergence
Procedure, shortened: as §1

[2] = system: pigweed (Amaranthus retroflexus); settings: for Plant response rating, Pigweed: Postemergence
Procedure, shortened: as §1

[3] = system: johnsongrass (Sorghum halepense); settings: for Plant response rating, Johnsongrass: Postemergence
Procedure, shortened: as §1

[4] = system: blackgrass (Alopecurus myosuroides); settings: for Blackgrass plant response rating (0 to 100 scale): 62 g ai/ha, postemergence, 0 is no effect, 100 is complete control; for Plant response rating, Blackgrass: Postemergence
Procedure, shortened: as §1

[5] = system: Surinam grass (Brachiaria decumbens); settings: for Plant response rating, Surinam Grass: Postemergence
Procedure, shortened: as §1

[6] = system: Italian ryegrass (Lolium multiflorum); settings: for Plant response rating, Ryegrass, Italian: Postemergence
Procedure, shortened: as §1

[7] = system: downy bromegrass (Bromus tectorum); settings: for Bromegrass, Downy plant response rating (0 to 100 scale): 62 g ai/ha, postemergence, 0 is no effect, 100 is complete control; for Plant response rating, Bromegrass, Downy: Postemergence
Procedure, shortened: as §1

corn (Zea mays) = settings: for Plant response rating, Corn: Postemergence
Procedure, shortened: as §1

[8] = system: giant foxtail (Setaria faberii); settings: for Plant response rating, Foxtail, Giant: Postemergence
Procedure, shortened: as §1

[9] = system: ragweed (common ragweed, Ambrosia elatior); settings: for Plant response rating, Ragweed: Postemergence
Procedure, shortened: as §1

[10] = system: velvetleaf (Abutilon theophrasti); settings: for Plant response rating, Velvetleaf: Postemergence
Procedure, shortened: as §1

kochia (Kochia scoparia) = settings: for Plant response rating, Kochia: Postemergence
Procedure, shortened: as §1

[11] = 62 g ai/ha, postemergence, 0 is no effect, 100 is complete control, 13 to 15 days
[12] = 31 g ai/ha, 0 to 100 scale (0 no effect, 100 complete control)
[13] = 125 g ai/ha, scale 0 to 100 (0 no effect, 100 complete control)
[14] = 250 g ai/ha, scale 0 to 100 (0 no effect, 100 complete control), 13 to 15 days

## COCCCn1c(-c2cccc(Br)c2)ncc(C(=O)C2=C(O)CCCC2=O)c1=O [Compound 140]
Soybean (Glycine max); [11]
  Soybean plant response rating (0 to 100 scale): 60
Soybean (Glycine max); [12]
  Plant response rating, Soybean: 10
Soybean (Glycine max); [13]
  Plant response rating, Soybean: 75
Soybean (Glycine max); [14]
  Plant response rating, Soybean: 80
[1]; [11]
  Cupgrass, Woolly plant response rating (0 to 100 scale): 50
[1]; [12]
  Plant response rating, Cupgrass, Woolly: 50
[1]; [13]
  Plant response rating, Cupgrass, Woolly: 65
[1]; [14]
  Plant response rating, Cupgrass, Woolly: 65
[2]; [11]
  Pigweed plant response rating (0 to 100 scale): 70
[2]; [12]
  Plant response rating, Pigweed: 55
[2]; [13]
  Plant response rating, Pigweed: 75
[2]; [14]
  Plant response rating, Pigweed: 98
[3]; [11]
  Johnsongrass plant response rating (0 to 100 scale): 15
[3]; [12]
  Plant response rating, Johnsongrass: 10
[3]; [13]
  Plant response rating, Johnsongrass: 35
[3]; [14]
  Plant response rating, Johnsongrass: 45
[4]; 13 to 15 days
  Blackgrass plant response rating (0 to 100 scale): 0
[4]; [12]
  Plant response rating, Blackgrass: 0
[4]; [13]
  Plant response rating, Blackgrass: 5
[4]; [14]
  Plant response rating, Blackgrass: 5
[5]; [11]
  Surinam Grass plant response rating (0 to 100 scale): 50
[5]; [12]
  Plant response rating, Surinam Grass: 50
[5]; [13]
  Plant response rating, Surinam Grass: 55
[5]; [14]
  Plant response rating, Surinam Grass: 65
[6]; [11]
  Ryegrass, Italian plant response rating (0 to 100 scale): 0
[6]; [12]
  Plant response rating, Ryegrass, Italian: 0
[6]; [13]
  Plant response rating, Ryegrass, Italian: 0
[6]; [14]
  Plant response rating, Ryegrass, Italian: 5
[7]; 13 to 15 days
  Bromegrass, Downy plant response rating (0 to 100 scale): 5
[7]; [12]
  Plant response rating, Bromegrass, Downy: 0
[7]; [13]
  Plant response rating, Bromegrass, Downy: 5
[7]; [14]
  Plant response rating, Bromegrass, Downy: 20
Corn (Zea mays); [11]
  Corn plant response rating (0 to 100 scale): 5
Corn (Zea mays); [12]
  Plant response rating, Corn: 0
Corn (Zea mays); [13]
  Plant response rating, Corn: 25
Corn (Zea mays); [14]
  Plant response rating, Corn: 45
[8]; [11]
  Foxtail, Giant plant response rating (0 to 100 scale): 75
[8]; [12]
  Plant response rating, Foxtail, Giant: 65
[8]; [13]
  Plant response rating, Foxtail, Giant: 80
[8]; [14]
  Plant response rating, Foxtail, Giant: 90
[9]; [11]
  Ragweed plant response rating (0 to 100 scale): 45
[9]; [12]
  Plant response rating, Ragweed: 25
[9]; [13]
  Plant response rating, Ragweed: 65
[9]; [14]
  Plant response rating, Ragweed: 75
[10]; [11]
  Velvetleaf plant response rating (0 to 100 scale): 65
[10]; [12]
  Plant response rating, Velvetleaf: 50
[10]; [13]
  Plant response rating, Velvetleaf: 80
[10]; [14]
  Plant response rating, Velvetleaf: 85
Kochia (Kochia scoparia); [11]
  Kochia plant response rating (0 to 100 scale): 10
Kochia (Kochia scoparia); [12]
  Plant response rating, Kochia: 0
Kochia (Kochia scoparia); [13]
  Plant response rating, Kochia: 10
Kochia (Kochia scoparia); [14]
  Plant response rating, Kochia: 35

## O=C1CCCC(O)=C1C(=O)c1cnc(-c2cccs2)n(C2CCCCC2)c1=O [Compound 189]
Soybean (Glycine max); [12]
  Plant response rating, Soybean: 90
Soybean (Glycine max); [13]
  Plant response rating, Soybean: 98
Soybean (Glycine max); [14]
  Plant response rating, Soybean: 100
[1]; [12]
  Plant response rating, Cupgrass, Woolly: 70
[1]; [13]
  Plant response rating, Cupgrass, Woolly: 75
[1]; [14]
  Plant response rating, Cupgrass, Woolly: 80
[2]; [12]
  Plant response rating, Pigweed: 80
[2]; [13]
  Plant response rating, Pigweed: 100
[2]; [14]
  Plant response rating, Pigweed: 100
[3]; [12]
  Plant response rating, Johnsongrass: 50
[3]; [13]
  Plant response rating, Johnsongrass: 65
[3]; [14]
  Plant response rating, Johnsongrass: 70
[4]; 13 to 15 days
  Blackgrass plant response rating (0 to 100 scale): 0
[4]; [12]
  Plant response rating, Blackgrass: 0
[4]; [13]
  Plant response rating, Blackgrass: 5
[4]; [14]
  Plant response rating, Blackgrass: 5
[5]; [12]
  Plant response rating, Surinam Grass: 65
[5]; [13]
  Plant response rating, Surinam Grass: 80
[5]; [14]
  Plant response rating, Surinam Grass: 85
[6]; [12]
  Plant response rating, Ryegrass, Italian: 0
[6]; [13]
  Plant response rating, Ryegrass, Italian: 5
[6]; [14]
  Plant response rating, Ryegrass, Italian: 5
[7]; 13 to 15 days
  Bromegrass, Downy plant response rating (0 to 100 scale): 5
[7]; [12]
  Plant response rating, Bromegrass, Downy: 0
[7]; [13]
  Plant response rating, Bromegrass, Downy: 5
[7]; [14]
  Plant response rating, Bromegrass, Downy: 10
Corn (Zea mays); [12]
  Plant response rating, Corn: 20
Corn (Zea mays); [13]
  Plant response rating, Corn: 35
Corn (Zea mays); [14]
  Plant response rating, Corn: 45
[8]; [12]
  Plant response rating, Foxtail, Giant: 75
[8]; [13]
  Plant response rating, Foxtail, Giant: 90
[8]; [14]
  Plant response rating, Foxtail, Giant: 98
[9]; [12]
  Plant response rating, Ragweed: 10
[9]; [13]
  Plant response rating, Ragweed: 75
[9]; [14]
  Plant response rating, Ragweed: 80
[10]; [12]
  Plant response rating, Velvetleaf: 85
[10]; [13]
  Plant response rating, Velvetleaf: 100
[10]; [14]
  Plant response rating, Velvetleaf: 100
Kochia (Kochia scoparia); [12]
  Plant response rating, Kochia: 85
Kochia (Kochia scoparia); [13]
  Plant response rating, Kochia: 98
Kochia (Kochia scoparia); [14]
  Plant response rating, Kochia: 100
